Several values for one entry are separate records, joined by “and”; a condition that tells them apart may be missing. Identical values can stand only once. Like-named read-outs stand apart in the source and are kept apart here.

We go through 6 molecules from patent US20030215462A1, “Use of UGT inhibitors to increase bioavailability” (priority 2001, published 2003).

Data set [1] concerns UGT enzymes of human liver microsomes. Description: Inhibition of raloxifene glucuronidation (G1, G2) in human liver microsomes. It counts as biochemical. An excerpt:
Compounds were eluted using a binary solvent gradient system. […] Solvent B was methanol. […] Detection was at 280 nm.
(Liver microsomes are vesicles of endoplasmic reticulum, rich in cytochrome P450 enzymes.)

Data set [2] has the same test system. The data set can be described thus: Inhibition of 7-HFC glucuronidation in human liver microsomes. Format: biochemical. The following applies: 7-HFC 50 μM, human liver microsomes 100 μg/ml, 15 min.
Data set [3] deals with T1, UGT enzymes of human liver microsomes.
T1 construct: percentage of control metabolism, 7-HFC glucuronidation; percentage of control metabolism, 7-HFC glucuronidation
The description is as above. It counts as biochemical. As to conditions: 7-HFC 50 μM, human liver microsomes 100 μg/ml, 15 min.

Data set [4] concerns the target T2, UGT1A3 (Homo sapiens, UniProt P35503).
T2 sequence (P35503 29-534): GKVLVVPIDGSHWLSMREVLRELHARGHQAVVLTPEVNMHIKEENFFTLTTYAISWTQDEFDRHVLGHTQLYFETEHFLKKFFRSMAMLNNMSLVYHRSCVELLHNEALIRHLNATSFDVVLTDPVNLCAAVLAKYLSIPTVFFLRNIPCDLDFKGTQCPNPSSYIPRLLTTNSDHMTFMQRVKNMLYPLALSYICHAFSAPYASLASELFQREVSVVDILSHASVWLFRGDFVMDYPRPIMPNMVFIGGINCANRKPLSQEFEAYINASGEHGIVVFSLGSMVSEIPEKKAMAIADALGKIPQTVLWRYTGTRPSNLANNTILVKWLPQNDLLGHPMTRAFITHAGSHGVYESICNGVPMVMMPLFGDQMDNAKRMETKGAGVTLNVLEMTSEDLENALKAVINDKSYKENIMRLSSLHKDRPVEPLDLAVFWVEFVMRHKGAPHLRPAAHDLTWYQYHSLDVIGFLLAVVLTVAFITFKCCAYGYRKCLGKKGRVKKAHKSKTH
The data set can be described thus: Inhibition of raloxifene glucuronidation by recombinant UGT1A3 Supersomes. As to conditions: UGT1A3.
Description: (§1) Compounds were eluted using a binary solvent gradient system. Solvent A was water brought to pH 8 with NH4OH. Solvent B was methanol. Solvent flow rate was 1 ml/min and the column temperature was maintained at 50° C. Detection was at 280 nm. […] The system was then returned to the initial conditions and equilibrated for 3 min.

Data set [5] has as its target T3, UGT1A1 (Homo sapiens, UniProt P22309).
T3 sequence (P22309 26-533): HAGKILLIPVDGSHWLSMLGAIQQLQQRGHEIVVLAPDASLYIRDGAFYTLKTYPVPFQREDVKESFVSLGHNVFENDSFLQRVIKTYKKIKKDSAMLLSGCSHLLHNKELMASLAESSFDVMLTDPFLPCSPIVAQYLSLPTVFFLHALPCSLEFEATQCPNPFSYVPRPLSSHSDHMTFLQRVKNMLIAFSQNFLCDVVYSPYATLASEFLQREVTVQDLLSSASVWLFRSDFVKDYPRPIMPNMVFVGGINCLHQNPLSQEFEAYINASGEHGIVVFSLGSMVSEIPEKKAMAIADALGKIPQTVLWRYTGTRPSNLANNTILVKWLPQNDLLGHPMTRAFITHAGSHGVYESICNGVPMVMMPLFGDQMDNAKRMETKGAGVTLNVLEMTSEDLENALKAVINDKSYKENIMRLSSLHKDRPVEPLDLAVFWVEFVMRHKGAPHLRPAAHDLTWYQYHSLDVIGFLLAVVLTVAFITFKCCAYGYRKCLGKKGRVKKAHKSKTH
The data set can be described thus: in vitro.
Description: as §1

The target in data set [6] is T2, UGT1A3. Description: in vitro.
Description: as §1
For data set [7], the target named is T4, UGT1A10 (Homo sapiens, UniProt Q9HAW8).
T4 sequence (Q9HAW8 26-530): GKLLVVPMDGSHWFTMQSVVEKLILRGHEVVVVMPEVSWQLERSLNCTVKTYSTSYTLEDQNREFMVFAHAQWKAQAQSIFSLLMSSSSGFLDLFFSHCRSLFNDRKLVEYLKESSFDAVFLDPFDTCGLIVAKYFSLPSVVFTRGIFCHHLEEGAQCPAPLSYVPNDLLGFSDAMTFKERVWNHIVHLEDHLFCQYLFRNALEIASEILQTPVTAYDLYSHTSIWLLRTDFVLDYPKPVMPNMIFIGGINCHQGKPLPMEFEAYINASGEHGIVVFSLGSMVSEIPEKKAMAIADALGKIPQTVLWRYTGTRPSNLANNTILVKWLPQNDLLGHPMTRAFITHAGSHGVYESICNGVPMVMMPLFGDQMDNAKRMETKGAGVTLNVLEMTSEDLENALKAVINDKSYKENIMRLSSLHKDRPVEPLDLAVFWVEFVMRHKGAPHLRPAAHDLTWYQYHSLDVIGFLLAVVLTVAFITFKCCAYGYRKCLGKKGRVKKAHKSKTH
Description: in vitro. The following applies: pH 7.5, % of control metabolism.
Description: as §1

Data set [8] concerns the target T4, UGT1A10. The data set can be described thus: Inhibition of raloxifene glucuronidation by recombinant UGT1A10 Bacculosomes. The following applies: UGT1A10.
Description: as §1
In data set [9] the target is T5, UGT1A9 (Homo sapiens, UniProt O60656).
T5 sequence (O60656 26-530): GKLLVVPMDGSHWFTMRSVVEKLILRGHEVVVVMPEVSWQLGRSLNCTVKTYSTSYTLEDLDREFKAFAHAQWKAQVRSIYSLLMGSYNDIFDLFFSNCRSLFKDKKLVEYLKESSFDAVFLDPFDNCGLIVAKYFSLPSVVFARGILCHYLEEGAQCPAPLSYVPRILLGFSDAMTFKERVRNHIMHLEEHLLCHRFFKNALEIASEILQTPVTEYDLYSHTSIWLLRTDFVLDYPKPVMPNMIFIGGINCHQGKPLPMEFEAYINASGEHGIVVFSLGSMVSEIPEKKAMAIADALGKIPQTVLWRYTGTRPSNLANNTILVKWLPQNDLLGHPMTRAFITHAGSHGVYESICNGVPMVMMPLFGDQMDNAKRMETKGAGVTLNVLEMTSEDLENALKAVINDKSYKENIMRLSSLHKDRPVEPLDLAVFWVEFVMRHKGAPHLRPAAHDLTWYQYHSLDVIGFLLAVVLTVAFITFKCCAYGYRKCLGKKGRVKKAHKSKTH
Description: Inhibition of raloxifene glucuronidation by recombinant UGT1A9 Supersomes. As to conditions: for activity at 15 min, 50 µM: human, Supersomes with recombinant human UGT1A9, pH 7.5, probe raloxifene 50 μM.
Description: as §1

The target of data set [10] is T3, UGT1A1. Description: Inhibition of raloxifene glucuronidation by recombinant UGT1A1 Supersomes. The following applies: UGT1A1.
Description: as §1
The target in data set [11] is T5, UGT1A9. The data set can be described thus: in vitro. As to conditions: pH 7.5, % of control metabolism.
Description: as §1
The conditions of data set [12]: humans; cited from earlier work.
Setting [13] is: G1, inhibitor 500 μM, raloxifene 50 μM, human liver microsomes 250 μg/ml, 15 min.
Setting [14] is: G2, inhibitor 500 μM, raloxifene 50 μM, human liver microsomes 250 μg/ml, 15 min.
The mark [15] stands for this setting: pH 7.5, % of control metabolism, raloxifene G1.
Where [16] appears, read: pH 7.5, % of control metabolism, raloxifene G2.
Setting [17] is: pH 7.5, Inhibition of raloxifene glucuronidation, G1, UGT1A1.
The mark [18] stands for this setting: pH 7.5, Inhibition of raloxifene glucuronidation, G2, UGT1A1.
[19] abbreviates: raloxifene 50 μM, inhibitor 100 μM.
[20] abbreviates: pH 7.5, Inhibition of raloxifene glucuronidation, G1, UGT1A3.
The mark [21] stands for this setting: pH 7.5, Inhibition of raloxifene glucuronidation, G2, UGT1A3.

As for `CC(=O)OC1CC(C)CCC1C(C)C` (single isomer, unassigned; (-)) [(−)-Menthyl acetate], in data set [1] (setting [13]), the “% of control metabolism (SD, n = 3), raloxifene glucuronide G1” value is 76 (1) %. Besides, in data set [1] (setting [14]), the “% of control metabolism (SD, n = 3), raloxifene glucuronide G2” value is reported as 69 (0) %. Further, the “% of control metabolism (SD, n = 3), 7-HFC glucuronidation” value in data set [2] (inhibitor 1000 μM) was 32 (1) %; in data set [2] (inhibitor 2000 μM), 26 (1) %; in data set [3] (inhibitor 100 μM), 86 (2) %; in data set [3] (inhibitor 200 μM), 72 (2) %; in data set [3] (inhibitor 500 μM), 53 (2), % and 53 (1) %.

On to `CC(C)[C@@H]1CC[C@@H](C)C[C@H]1O` [(L)-Menthol], for which the “% of control metabolism (SD, n = 3), raloxifene glucuronide G1” value in data set [1] was 108 (4) %. In addition, the “% of control metabolism (SD, n = 3), raloxifene glucuronide G2” value in [1] is reported as 97 (2) %. In addition, the “% of control metabolism (SD, n = 3), 7-HFC glucuronidation” value in data set [2] (inhibitor 1000 μM) is 72 (1) %; in [2] (inhibitor 2000 μM), 53 (0) %; in data set [3] (inhibitor 500 μM), 75 (2), % and 80 (2) %.

On to `COc1c(C)c2c(c(O)c1C/C=C(\C)CCC(=O)O)C(=O)OC2` [Mycophenolic acid, reference compound], for which the “inhibition of raloxifene glucuronidation, in words” value in data set [4], in [8], in data set [9] (UGT1A9) and in data set [10] was “poor inhibitors” throughout. The activity at 15 min, 50 µM in data set [5] (setting [15]) stood at 90%; in data set [5] (setting [16]), 89%; in data set [5] (setting [17]), 90%; in data set [5] (setting [18]), 89%; in data set [6] (setting [15]), 95%; in data set [6] (setting [16]) it was 87%. Moreover, the activity at 15 min, 50 µM in data set [6] (setting [20]) turned out to be 95%; in data set [6] (setting [21]), 87%; in [7] (raloxifene G1) it was 110%; in data set [7] (raloxifene G2), 98%; in [9] (formation of glucuronide G1, % of control metabolism, raloxifene G1, UGT1A9, inhibitor 50 μM), 81%; in data set [9] (formation of glucuronide G2, % of control metabolism, raloxifene G2, UGT1A9, inhibitor 50 μM) it was 83%. Moreover, the “% of control metabolism (SD, n = 3), raloxifene glucuronide G1” value in data set [1] (G1, inhibitor 100 μM, raloxifene 50 μM, human liver microsomes 250 μg/ml, 15 min) was 89 (3) %; in data set [1] (setting [13]), 43 (5) %. For the same molecule, the “% of control metabolism (SD, n = 3), raloxifene glucuronide G2” value in data set [1] (G2, inhibitor 100 μM, raloxifene 50 μM, human liver microsomes 250 μg/ml, 15 min) is listed as 89 (2) %; in [1] (setting [14]) it was 47 (1) %. Further, the “% of control metabolism, raloxifene G1” value in [1] (setting [19]) is listed as 89 (3) %. In addition, the “% of control metabolism, raloxifene G2” value in data set [1] (setting [19]) is 89 (2) %. In addition, in [3] (inhibitor 500 μM), the “% of control metabolism (SD, n = 3), 7-HFC glucuronidation” value is listed as 83 (2) %. In addition, the “Inhibition of raloxifene glucuronidation, UGT1A9, second line per inhibitor (G2)” value in [9] (second line (G2, metabolite not given), inhibitor 50 μM, raloxifene 50 μM, 250 μg/ml Supersomes, 1 mM UDPGA, 15 min) is listed as 83 (3).

With `O=C(O)c1ccccc1O` [Salicylic acid], the “% of control metabolism (SD, n = 3), raloxifene glucuronide G1” value in data set [1] (setting [13]) is 92 (2) %. Also, the “% of control metabolism (SD, n = 3), raloxifene glucuronide G2” value in data set [1] (setting [14]) is listed as 94 (2) %. Moreover, the “% of control metabolism (SD, n = 3), 7-HFC glucuronidation” value in [2] (inhibitor 1000 μM) was 47 (1) %; in data set [2] (inhibitor 2000 μM), 35 (1) %; in data set [3] (inhibitor 100 μM), 84 (1) %; in data set [3] (inhibitor 200 μM), 75 (2) %; in data set [3] (inhibitor 500 μM), 64 (0), % and 63 (1) %.

As for `COc1cc(C2Oc3cc([C@H]4Oc5cc(O)cc(O)c5C(=O)[C@@H]4O)ccc3OC2CO)ccc1O` (some centres unmarked) [Silibinin], the activity at 15 min, 10 µM amounted to 93% in data set [11] (raloxifene G1); 72% in data set [11] (raloxifene G2); 69% in data set [5] (setting [15]); 63% in [5] (setting [16]); 81% in data set [6] (setting [15]); 56% in [6] (setting [16]). For the same molecule, the activity at 15 min, 10 µM in [6] (setting [20]) is 81%; in data set [6] (setting [21]), 56%. Moreover, the activity at 15 min, 25 µM in [11] (raloxifene G1) worked out at 74%; in data set [11] (raloxifene G2) it was 47%; in [5] (setting [15]) it was 46%; in data set [5] (setting [16]) it was 33%; in data set [5] (setting [17]), 46%; in [5] (setting [18]), 33%. Also, the activity at 15 min, 25 µM in data set [6] (setting [15]) was determined as 59%; in [6] (setting [16]), 32%; in [6] (setting [20]), 58%; in data set [6] (setting [21]) it was 32%. Moreover, the activity at 15 min, 50 µM in data set [11] (raloxifene G1) amounted to 59%; in data set [11] (raloxifene G2), 22%; in data set [5] (setting [15]), 18%; in data set [5] (setting [16]) it was 7%; in data set [5] (setting [17]), 18%; in [5] (setting [18]), 7%. Moreover, the activity at 15 min, 50 µM in [6] (setting [15]) is 37%; in [6] (setting [16]), 10%; in data set [6] (setting [20]), 37%; in [6] (setting [21]), 10%; in [7] (raloxifene G1) it was 56%; in [7] (raloxifene G2) it was 64%.

Consider `C[C@H](CCc1ccccc1)NC[C@H](O)c1ccc(O)c(C(N)=O)c1` [dilevalol], for which the absolute oral bioavailability in data set [12] is reported as 11-29%.
